One series relates to 3T3-L1 adipocytes. The experiment in a line: Secretion of adiponectin in 3T3-L1 adipocytes (ELISA of supernatant). Format: cell-based. Particulars: DNJ 80, 40, 20 μg/ml; summary statement. The method, then: Reduced adiponectin levels were independent risk factors for NAFLD and liver dysfunction. Adiponectin might activate liver AMPK, inhibit lipid synthesis, and promote lipid oxidation. Adiponectin might also affect inflammation of hepatic macrophages and fibrosis of hepatic stellate cells. 3T3-L1 pre-adipocytes were cultured in the medium containing calf serum and seeded into a 6-well plate at a density of 2×10^4 cells/ml. […] The supernatant was collected after culture for 8 days, and the concentration of adiponectin in the supernatant was detected using an ELISA kit.
In general terms: ELISA stands for enzyme-linked immunosorbent assay.

The test system of another series is HepG2 hepatocytes. The experiment in a line: Palmitic acid-treated HepG2 hepatocytes (non-alcoholic fatty liver model), triglyceride and cholesterol by kit. The class given is cell-based. Particulars: PA-treated HepG2, 24 h, DNJ 20 μg/ml. The method, then: HepG2 hepatocytes were cultured overnight in a 6-well plate at a seeding density of 2×10^5 cells/ml after digestion. HepG2 cells were treated with palmitic acid (PA) to create a non-alcoholic fatty liver model, with 0.25% BSA treatment as a control. Cells in the model groups were separately administrated with extracts from Morus alba L. (designed to be 25 μg/ml (containing 17 μg/ml DNJ) based on total alkaloids (SZ-A)) obtained from Example 1, 20 μg/ml DNJ, 5 μg/ml FAG, or 5 μg/ml DAB, and cultured for 24 h. Cells were lysed with the lysis solution containing Triton x-100 after removal of the supernatant, and the triglyceride (TG) and cholesterol (TC) in hepatocytes were detected using a kit.

On to `OC[C@H]1NC[C@H](O)[C@@H](O)[C@@H]1O` [DNJ, 1-deoxynojirimycin], for which the concentration of adiponectin result with 3T3-L1 adipocytes is listed as “increase the concentration of adiponectin”. The “triglyceride (TG) level in hepatocytes” value in the series on HepG2 hepatocytes (SZ-A 25 μg/ml (based on total alkaloids)) was “reduce the triglyceride level”. Further, the “cholesterol (TC) level in hepatocytes” value with HepG2 hepatocytes (SZ-A 25 μg/ml) is recorded as “reduced the cholesterol level”.

Values taken from patent US20240408162A1, “Use of Extract from Morus alba L. in the Preparation of a Medicament for Preventing and/or Treating a Hepatobiliary Disease” (BEIJING WEHAND-BIO PHARMACEUTICAL CO., LTD, priority 2022, published 2024).
